Data published in US7220563B2 (priority 2002, dated 2007).

System: recombinant GAO
Format: biochemical

Row | Molecule | effect on activation of the recombinant GAO | other results
1 | iron | did not affect activation | –
2 | manganese | did not affect activation | –
3 | nickel | did not affect activation | –
4 | cobalt | did not affect activation | –
5 | O=C(O)CN(CCN(CC(=O)O)CC(=O)O)CC(=O)O [EDTA] | did not affect activation | –
6 | O=S(=O)([O-])[O-].[Cu+2] [CuSO4, copper sulfate] | – | concentration sufficient to activate recombinant GAO: 0.1 mM; effect on GAO activity: slightly inhibited; preferred concentration for activating crude enzyme solution: 0.4 mM
